According to ChEMBL document CHEMBL4699668, “Discovery and Structure-Activity Relationships of Novel Template, Truncated 1'-Homologated Adenosine Derivatives as Pure Dual PPARγ/δ Modulators” (J Med Chem, 2020):

Experiments:
[1] = biological target: T1, Peroxisome proliferator-activated receptor gamma (Homo sapiens, UniProt P37231)
T1 sequence (P37231 whole entry): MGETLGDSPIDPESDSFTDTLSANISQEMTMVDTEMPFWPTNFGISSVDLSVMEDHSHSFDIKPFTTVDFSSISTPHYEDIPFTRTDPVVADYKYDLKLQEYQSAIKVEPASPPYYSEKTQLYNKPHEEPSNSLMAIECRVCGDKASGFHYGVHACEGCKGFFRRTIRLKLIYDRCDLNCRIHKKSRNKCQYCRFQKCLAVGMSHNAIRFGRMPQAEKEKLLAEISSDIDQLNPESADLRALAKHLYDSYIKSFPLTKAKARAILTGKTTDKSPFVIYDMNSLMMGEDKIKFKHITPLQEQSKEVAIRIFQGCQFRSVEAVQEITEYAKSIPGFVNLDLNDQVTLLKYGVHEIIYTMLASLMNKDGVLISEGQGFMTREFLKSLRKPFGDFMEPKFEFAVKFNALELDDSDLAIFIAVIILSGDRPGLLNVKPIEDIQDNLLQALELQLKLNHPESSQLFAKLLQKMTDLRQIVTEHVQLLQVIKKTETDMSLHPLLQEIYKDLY
Description: Binding affinity to PPAR-gamma (unknown origin) by TR-FRET assay

[2] = biological target: T2, Peroxisome proliferator-activated receptor delta (Homo sapiens, UniProt Q03181)
T2 sequence (Q03181 whole entry): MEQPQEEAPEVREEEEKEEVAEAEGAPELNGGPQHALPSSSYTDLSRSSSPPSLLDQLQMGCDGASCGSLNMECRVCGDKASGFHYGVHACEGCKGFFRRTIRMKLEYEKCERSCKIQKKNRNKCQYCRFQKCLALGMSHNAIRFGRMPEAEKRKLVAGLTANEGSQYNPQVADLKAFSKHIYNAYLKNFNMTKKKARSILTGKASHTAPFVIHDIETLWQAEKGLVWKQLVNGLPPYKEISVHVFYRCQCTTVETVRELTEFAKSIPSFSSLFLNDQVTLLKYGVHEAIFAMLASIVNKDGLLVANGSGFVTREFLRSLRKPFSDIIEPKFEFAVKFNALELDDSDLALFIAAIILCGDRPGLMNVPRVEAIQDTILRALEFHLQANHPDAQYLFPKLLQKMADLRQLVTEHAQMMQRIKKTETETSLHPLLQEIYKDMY
Description: Binding affinity to PPAR-delta (unknown origin) by TR-FRET assay

| SMILES | Ki [1] [µM] | Ki [2] [µM] |
| --- | --- | --- |
| O[C@@H]1[C@H](O)CS[C@H]1Cn1cnc2c(NCc3cccc(F)c3)nc(Cl)nc21 | 3.89 | 1.91 |
| O[C@@H]1[C@H](O)CS[C@H]1Cn1cnc2c(NCc3cccc(Br)c3)nc(Cl)nc21 | 4.07 | 0.592 |
| O[C@@H]1[C@H](O)CS[C@H]1n1cnc2c(NCc3cccc(I)c3)nc(Cl)nc21 |  | 0.0106 |
| O[C@@H]1[C@H](O)CO[C@H]1Cn1cnc2c(NCc3cccc(Br)c3)nc(Cl)nc21 | 9.55 | 1.43 |
| O[C@@H]1[C@H](O)CO[C@H]1Cn1cnc2c(NCc3cccc(Cl)c3)nc(Cl)nc21 | 7.66 | 0.504 |

Now from value to molecule, other results behind:

| Ki [1] [µM] | SMILES | Ki [2] [µM] |
| --- | --- | --- |
| 7.3 | CC#Cc1nc(NCc2cccc(I)c2)c2ncn(C[C@@H]3SC[C@@H](O)[C@H]3O)c2n1 |  |
| 7.66 | CC#Cc1nc(NCc2cccc(F)c2)c2ncn(C[C@@H]3SC[C@@H](O)[C@H]3O)c2n1 |  |
| 7.04 | CC#Cc1nc(NCc2cccc(Br)c2)c2ncn(C[C@@H]3SC[C@@H](O)[C@H]3O)c2n1 |  |
